Measurements published in ChEMBL document CHEMBL1201862, “PubChem BioAssay data set” (2004).
Active and inactive are the calls of the source.

Legend:
[1] = biological target: T1, Neuropeptides B/W receptor type 1 (Homo sapiens, UniProt P48145); experiment: human NPBW1 receptor blockade, IC50 – cell-based, fluorescence, dose response, set 5, late-stage follow-up (AID 588566); type: functional
T1 sequence (P48145 whole entry): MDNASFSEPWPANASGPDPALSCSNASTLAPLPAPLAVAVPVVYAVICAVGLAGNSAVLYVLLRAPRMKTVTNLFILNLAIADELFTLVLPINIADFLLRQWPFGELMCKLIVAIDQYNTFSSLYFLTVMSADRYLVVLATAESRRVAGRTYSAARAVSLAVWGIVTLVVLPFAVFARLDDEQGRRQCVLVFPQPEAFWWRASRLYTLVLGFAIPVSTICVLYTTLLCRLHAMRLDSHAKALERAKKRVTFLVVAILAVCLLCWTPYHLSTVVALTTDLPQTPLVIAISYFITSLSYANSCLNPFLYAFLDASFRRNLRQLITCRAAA

[2] = biological target: Melanin-concentrating hormone receptor 1 (Homo sapiens, UniProt Q99705); experiment: Late-stage fluorescence-based counterscreen for antagonists of the G-protein coupled receptor 7 (GPR7): cell-based dose response assay to identify antagonists of the melanin-concentrating hormone receptor 1 (MCHR1) Set 5.; type: functional
Sequence of Melanin-concentrating hormone receptor 1 (Q99705 whole entry): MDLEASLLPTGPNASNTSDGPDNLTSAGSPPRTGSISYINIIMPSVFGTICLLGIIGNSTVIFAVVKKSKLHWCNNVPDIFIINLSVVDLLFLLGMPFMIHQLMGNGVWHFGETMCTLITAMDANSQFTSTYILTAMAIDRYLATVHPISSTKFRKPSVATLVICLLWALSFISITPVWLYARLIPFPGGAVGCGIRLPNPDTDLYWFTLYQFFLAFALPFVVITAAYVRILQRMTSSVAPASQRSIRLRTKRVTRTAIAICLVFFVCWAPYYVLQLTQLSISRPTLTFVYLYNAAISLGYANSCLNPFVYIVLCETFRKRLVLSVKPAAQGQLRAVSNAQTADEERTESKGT

[3] = Luminescence Cell-Based Dose Retest to Confirm Inhibitors of Cancer Stem Cells. [Related pubchem assays (depositor defined):AID2717, AID2721]; type: functional; conditions: Homo sapiens
[4] = viability loss of HMLE_sh_eGFP cells – cell-based, luminescence, counter-screen for HMLE_sh_ECad selective toxicity project, dose response (AID 463074); type: functional, Homo sapiens;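 further: HMLE human mammary epithelial cells expressing control shRNA against eGFP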
[5] = biological target: Dual specificity protein kinase CLK1 (Homo sapiens, UniProt P49759); experiment: inhibition of human CLK1 activity – biochemical, cherry-picked samples, selectivity assay for Dyrk1A inhibitor project, dose response (AID 588811)
Sequence of Dual specificity protein kinase CLK1 (P49759 whole entry): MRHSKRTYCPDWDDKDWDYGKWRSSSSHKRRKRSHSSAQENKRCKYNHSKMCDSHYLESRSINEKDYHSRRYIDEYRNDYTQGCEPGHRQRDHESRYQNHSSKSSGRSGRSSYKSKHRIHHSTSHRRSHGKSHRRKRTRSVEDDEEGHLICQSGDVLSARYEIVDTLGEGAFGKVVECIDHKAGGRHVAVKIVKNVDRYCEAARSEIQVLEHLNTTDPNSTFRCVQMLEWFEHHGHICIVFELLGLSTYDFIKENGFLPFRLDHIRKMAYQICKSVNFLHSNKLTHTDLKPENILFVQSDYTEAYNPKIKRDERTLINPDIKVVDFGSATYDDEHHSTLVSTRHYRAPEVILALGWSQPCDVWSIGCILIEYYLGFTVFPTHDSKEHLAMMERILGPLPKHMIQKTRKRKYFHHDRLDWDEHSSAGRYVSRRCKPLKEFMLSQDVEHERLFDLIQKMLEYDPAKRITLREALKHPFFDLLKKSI

[6] = biological target: Dual specificity tyrosine-phosphorylation-regulated kinase 1A (Rattus norvegicus, UniProt Q63470); type: biochemical, Homo sapiens
HeLa = experiment: ATP-based viability loss in HeLa cells – cell-based, CellTiter-Glo luminescence, cherry-pick samples, cytotoxicity control for MITF activator project, dose response (AID 540259); type: functional; conditions: Homo sapiens
[7] = biological target: Glycogen synthase kinase-3 beta (Homo sapiens, UniProt P49841); experiment: inhibition of human GSK3B activity – biochemical, microfluidics, dry powder samples, set 2, dose response (AID 623989); type: functional
Sequence of Glycogen synthase kinase-3 beta (P49841 whole entry): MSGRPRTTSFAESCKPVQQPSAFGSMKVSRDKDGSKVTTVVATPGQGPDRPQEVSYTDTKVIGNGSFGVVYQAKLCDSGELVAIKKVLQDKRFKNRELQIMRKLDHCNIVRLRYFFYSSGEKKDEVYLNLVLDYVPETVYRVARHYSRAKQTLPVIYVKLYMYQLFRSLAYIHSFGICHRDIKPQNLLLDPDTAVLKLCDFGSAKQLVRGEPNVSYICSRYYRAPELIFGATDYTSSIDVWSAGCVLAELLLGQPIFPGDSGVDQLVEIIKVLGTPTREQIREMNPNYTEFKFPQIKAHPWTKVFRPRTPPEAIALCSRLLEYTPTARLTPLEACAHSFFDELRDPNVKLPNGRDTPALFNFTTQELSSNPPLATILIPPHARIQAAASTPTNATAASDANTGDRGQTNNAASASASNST

[8] = biological target: Glycogen synthase kinase-3 alpha (Homo sapiens, UniProt P49840); experiment: GSK3A enzyme blockers, homolog specificity check – biochemical, microfluidics, dry powder samples, set 2, selectivity assay for GSK3beta inhibitor project, dose response (AID 623978); type: functional
Sequence of Glycogen synthase kinase-3 alpha (P49840 whole entry): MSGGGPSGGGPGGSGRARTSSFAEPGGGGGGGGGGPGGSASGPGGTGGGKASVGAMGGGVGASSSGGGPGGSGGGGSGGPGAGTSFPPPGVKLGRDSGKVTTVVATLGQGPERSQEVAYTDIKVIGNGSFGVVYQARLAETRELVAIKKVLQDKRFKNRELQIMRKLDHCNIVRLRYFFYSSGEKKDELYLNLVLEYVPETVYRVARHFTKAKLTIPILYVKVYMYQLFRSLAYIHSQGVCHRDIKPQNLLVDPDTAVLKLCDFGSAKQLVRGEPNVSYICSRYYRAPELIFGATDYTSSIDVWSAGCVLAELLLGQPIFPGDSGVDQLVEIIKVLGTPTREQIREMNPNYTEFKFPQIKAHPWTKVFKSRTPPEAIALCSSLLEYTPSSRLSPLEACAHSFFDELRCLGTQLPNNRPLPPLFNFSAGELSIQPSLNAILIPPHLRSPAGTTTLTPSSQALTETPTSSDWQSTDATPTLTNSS

[9] = biological target: Cyclin-dependent kinase 5/CDK5 activator 1 (Homo sapiens, UniProt Q00535); experiment: inhibitors of human CDK5 activity – biochemical, microfluidic mobility shift, dry powder, set 2, selectivity assay for GSK3beta inhibitor project, dose response (AID 623979); type: functional
Sequence of Cyclin-dependent kinase 5/CDK5 activator 1 (Q00535 whole entry): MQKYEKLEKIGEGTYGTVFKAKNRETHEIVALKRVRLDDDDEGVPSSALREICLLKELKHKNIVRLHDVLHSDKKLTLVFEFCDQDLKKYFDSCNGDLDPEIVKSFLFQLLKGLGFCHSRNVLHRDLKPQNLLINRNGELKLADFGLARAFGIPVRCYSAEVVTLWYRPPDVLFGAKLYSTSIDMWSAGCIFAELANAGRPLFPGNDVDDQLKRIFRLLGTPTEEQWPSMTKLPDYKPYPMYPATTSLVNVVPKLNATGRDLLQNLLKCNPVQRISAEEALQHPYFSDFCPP
Sequence of Cyclin-dependent kinase 5/CDK5 activator 1 (Q15078 whole entry, further chain): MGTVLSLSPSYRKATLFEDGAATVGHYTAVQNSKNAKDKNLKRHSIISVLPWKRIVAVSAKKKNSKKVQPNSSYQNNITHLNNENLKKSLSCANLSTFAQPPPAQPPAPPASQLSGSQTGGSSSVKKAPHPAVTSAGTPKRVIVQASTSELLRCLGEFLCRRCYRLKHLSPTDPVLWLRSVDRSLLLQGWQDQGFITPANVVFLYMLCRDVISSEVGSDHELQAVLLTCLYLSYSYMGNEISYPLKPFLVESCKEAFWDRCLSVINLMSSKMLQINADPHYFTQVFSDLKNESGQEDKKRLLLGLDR

[10] = viability loss in HeLa cells – cytotoxicity control for MgcRacGAP inhibitor project, dose response (AID 624300); type: functional
[11] = biological target: T2, Rac GTPase-activating protein 1 (Homo sapiens, UniProt Q9H0H5); experiment: blockers of MgcRacGAP-driven Rac1 GTP hydrolysis – biochemical, ADP Hunter fluorescence, primary and confirmatory, confirmation (AID 624330); type: functional
T2 sequence (Q9H0H5 whole entry): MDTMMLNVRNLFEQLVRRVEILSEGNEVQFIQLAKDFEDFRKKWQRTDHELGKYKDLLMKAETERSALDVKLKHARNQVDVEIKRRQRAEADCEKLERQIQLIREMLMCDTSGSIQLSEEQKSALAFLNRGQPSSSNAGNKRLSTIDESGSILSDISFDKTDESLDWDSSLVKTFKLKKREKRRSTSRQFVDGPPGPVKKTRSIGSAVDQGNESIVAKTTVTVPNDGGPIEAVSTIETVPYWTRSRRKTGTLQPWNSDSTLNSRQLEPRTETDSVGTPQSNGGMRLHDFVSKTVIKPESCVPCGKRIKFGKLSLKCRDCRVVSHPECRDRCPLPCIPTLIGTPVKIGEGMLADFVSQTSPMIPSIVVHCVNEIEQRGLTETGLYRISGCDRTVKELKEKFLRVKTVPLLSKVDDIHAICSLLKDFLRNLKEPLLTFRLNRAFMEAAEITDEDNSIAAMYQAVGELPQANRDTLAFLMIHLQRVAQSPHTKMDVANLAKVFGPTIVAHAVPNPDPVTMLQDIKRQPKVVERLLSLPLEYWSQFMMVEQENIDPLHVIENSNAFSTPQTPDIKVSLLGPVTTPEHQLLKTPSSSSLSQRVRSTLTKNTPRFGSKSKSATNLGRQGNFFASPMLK

COc1ccc(Oc2c(Cl)cnn(CC(=O)c3ccc(Cl)cc3Cl)c2=O)cc1
active: IC50 [1] 1.85 µM | IC50 [2] 5.47 µM

COc1cccc(Nc2nc(-c3ccc(O)cc3)cs2)c1
active: AC50 [3] 19.6 µM | AC50 [4] 34.7 µM | AC50 [5] 7.47 µM | AC50 [6] 10.2 µM | AC50 (HeLa) 54.8 µM | AC50 [7] 2.8 µM | AC50 [8] 8.21 µM | AC50 [9] 33 µM | CC50 [10] 100 µM | IC50 [11] 66.1 µM
